# Source: patent US11464250B2, “Natural compound sweetener and preparation method therefor” (HUNAN HUACHENG BIOTECH INC., priority 2017, dated 2022)
# Columns and labels:
# [1] = times that of saccharose, cited from earlier work
# [2] = electronic tongue tasting, intelligent gustation analysis system TS-5000Z; conditions: 1% (mass concentration) saccharose as standard; FIG. 1-FIG. 3
# Text: Method II: an intelligent gustation analysis system TS-5000Z, namely an electronic tongue is adopted to perform tasting, an artificial fat membrane sensor technology, of which an operating principle is similar to that of human tongue gustation cells, is employed, basic gustatory sensory indexes such as bitter taste, astringent taste, sour taste, saline taste, fresh taste, sweet taste and raw material original taste of samples such as foods or drugs can be objectively and digitally evaluated, and meanwhile, a bitter aftertaste, an astringent aftertaste and a fresh aftertaste (abundance) can be further analyzed. Drawing is performed according to test data, and electronic tongue tasting test data graphs of the natural compound sweeteners in the embodiments 1-3 are separately shown in FIG. 1-FIG. 3.
compound,measurement,setting,value
C[C@H](CC[C@@H](O[C@@H]1O[C@H](CO[C@@H]2O[C@H](CO)[C@@H](O)[C@H](O)[C@H]2O)[C@@H](O)[C@H](O)[C@H]1O[C@@H]1O[C@H](CO)[C@@H](O)[C@H](O)[C@H]1O)C(C)(C)O)[C@H]1CC[C@@]2(C)[C@@H]3CC=C4[C@@H](CC[C@H](O[C@@H]5O[C@H](CO[C@@H]6O[C@H](CO)[C@@H](O)[C@H](O)[C@H]6O)[C@@H](O)[C@H](O)[C@H]5O)C4(C)C)[C@]3(C)[C@H](O)C[C@]12C [Mogroside V],maximum sweetness relative to saccharose,[1],420 times
C=C1C[C@@]23CC[C@H]4[C@@](C)(CCC[C@@]4(C)C(=O)O[C@@H]4O[C@H](CO)[C@@H](O)[C@H](O)[C@H]4O)[C@@H]2CC[C@]1(O[C@@H]1O[C@H](CO)[C@@H](O)[C@H](O[C@@H]2O[C@H](CO)[C@@H](O)[C@H](O)[C@H]2O)[C@H]1O[C@@H]1O[C@H](CO)[C@@H](O)[C@H](O)[C@H]1O)C3 [rebaudioside A],electronic tongue taste profile,[2],"partial to a herbal medicine taste, namely a raw-material original taste is very strong"
rebaudioside C [Reb C],sweetness relative to saccharose,[1]; from CN104144605A discussion,300 times
